Reference: patent publication US20110034714A1, “METAL COMPLEX COMPOUND, CANCER THERAPEUTIC AGENT COMPOSITION CONTAINING THE METAL COMPLEX COMPOUND AS AN ACTIVE INGREDIENT, AND INTERMEDIATE FOR THE METAL COMPLEX COMPOUND” (priority 2007, published 2011)

Assays:
Type in all cases: in vivo
human tumor SC-6-JCK = test: Anti-tumor action in nude mice transplanted with human tumor SC-6-JCK; settings: SC-6-JCK tumor-bearing nude mice, 7.0 mg and 10.0 mg/kg, tail vein, 3 times at 4 days' intervals
Experimental: (§1) Using nude mice transplanted with human tumors SC-6-JCK and Lu-24, the anti-tumor action of the substance having the structure below (Compound 44), among the compounds of the present invention, was investigated. Each of SC-6-JCK and Lu-24 was subcutaneously implanted in nude mice, and, when the tumor volumes reached to 100 to 300 mm^3, 7.0 mg and 10.0 mg/kg of the present test substance were respectively administered to the SC-6-JCK tumor-bearing mice, and 10.0 mg and 12.0 mg/kg of the present test substance were respectively administered to the Lu-24 tumor-bearing mice, from the tail vein 3 times intermittently at 4 days' intervals.

[1] = BUN (blood urea nitrogen) as an index of nephrotoxicity in tumor-bearing nude mice; settings: 4 days after completion of the administration; SC-6-JCK and Lu-24 tumor-bearing nude mice
Experimental: as §1

human tumor Lu-24 = test: Anti-tumor action in nude mice transplanted with human tumor Lu-24; settings: Lu-24 tumor-bearing nude mice, 10.0 mg and 12.0 mg/kg, tail vein, 3 times at 4 days' intervals
Experimental: as §1

CCOP1(=O)CP(=O)(OCC)[O][Pt]([NH2])([NH2])[O]1 (stereo not drawn) [Compound 44]
suppression of the tumor volume (human tumor SC-6-JCK): suppression of the tumor volume was observed in a dose-dependent manner
BUN (blood urea nitrogen) as an index of nephrotoxicity [1]: an increase of the BUN value was not observed
suppression of the tumor volume (human tumor Lu-24): suppression of the tumor volume was observed in a dose-dependent manner
